In ChEMBL document CHEMBL4385604, “Identification of Pyrrolo[2,3- d]pyrimidine-Based Derivatives as Potent and Orally Effective Fms-like Tyrosine Receptor Kinase 3 (FLT3) Inhibitors for Treating Acute Myelogenous Leukemia” (J Med Chem, 2019):
pIC50: −log10 of the molar value.

Columns and labels:
[1] = system: MOLM-13; experiment: cells; settings: Homo sapiens, MOLM-13, 72 h
Description: Antiproliferative activity against human MOLM13 cells harboring FLT3-ITD mutant measured after 72 hrs by MTT assay

[2] = system: BaF3; experiment: cells; settings: Mus musculus, BaF3, 72 h
Description: Antiproliferative activity against mouse BAF3 cells harboring FLT3-ITD-F691L mutant measured after 72 hrs by MTT assay

[3] = system: HL-60; experiment: Antiproliferative activity against human HL60 cells harboring wild-type FLT3 measured after 72 hrs by MTT assay; type: functional, cell-based; settings: HL-60, 72 h
[4] = target: T1, Receptor-type tyrosine-protein kinase FLT3 (Homo sapiens, UniProt P36888)
T1 sequence (P36888 whole entry): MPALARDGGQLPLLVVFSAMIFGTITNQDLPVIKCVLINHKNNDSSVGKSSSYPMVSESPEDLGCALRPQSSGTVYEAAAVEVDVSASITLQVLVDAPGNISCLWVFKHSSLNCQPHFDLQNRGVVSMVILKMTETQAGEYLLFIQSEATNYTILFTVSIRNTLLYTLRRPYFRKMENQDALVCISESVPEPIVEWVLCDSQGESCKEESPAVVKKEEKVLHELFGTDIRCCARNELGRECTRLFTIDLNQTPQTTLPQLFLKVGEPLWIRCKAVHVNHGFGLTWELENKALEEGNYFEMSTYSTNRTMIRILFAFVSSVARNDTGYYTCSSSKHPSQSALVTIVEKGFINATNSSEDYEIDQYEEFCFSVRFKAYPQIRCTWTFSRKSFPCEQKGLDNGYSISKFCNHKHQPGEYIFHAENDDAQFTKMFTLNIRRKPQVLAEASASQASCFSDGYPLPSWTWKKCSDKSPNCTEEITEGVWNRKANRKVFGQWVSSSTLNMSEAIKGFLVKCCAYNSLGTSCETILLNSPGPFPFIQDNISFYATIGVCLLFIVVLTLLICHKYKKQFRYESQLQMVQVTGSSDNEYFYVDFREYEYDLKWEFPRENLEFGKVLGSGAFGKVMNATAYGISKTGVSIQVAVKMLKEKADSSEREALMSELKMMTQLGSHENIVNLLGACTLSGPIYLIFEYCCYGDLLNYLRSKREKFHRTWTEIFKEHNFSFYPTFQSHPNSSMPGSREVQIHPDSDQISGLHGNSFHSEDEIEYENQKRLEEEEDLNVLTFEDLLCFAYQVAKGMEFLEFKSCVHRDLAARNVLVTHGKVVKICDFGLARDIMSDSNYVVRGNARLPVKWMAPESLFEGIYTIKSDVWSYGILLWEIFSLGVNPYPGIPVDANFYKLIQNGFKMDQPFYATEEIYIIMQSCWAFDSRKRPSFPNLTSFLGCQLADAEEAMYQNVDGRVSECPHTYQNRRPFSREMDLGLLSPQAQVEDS

[5] = system: MV4-11; experiment: cells; settings: Homo sapiens, MV4-11, 72 h
Description: Antiproliferative activity against human MV4-11 cells harboring FLT3-ITD mutant measured after 72 hrs by MTT assay

[6] = system: BaF3; experiment: cells; settings: Mus musculus, BaF3, 72 h; remark: listed apart in the source
Description: Antiproliferative activity against mouse BAF3 cells harboring FLT3-ITD-D835V mutant measured after 72 hrs by MTT assay

[7] = system: BaF3; experiment: cells; settings: Mus musculus, BaF3, 72 h; remark: listed apart in the source
Description: Antiproliferative activity against mouse BAF3 cells harboring FLT3-ITD mutant measured after 72 hrs by MTT assay

[8] = system: RS4-11; experiment: Antiproliferative activity against human RS4:11 cells harboring wild-type FLT3 measured after 72 hrs by MTT assay; type: functional, cell-based; settings: RS4-11, 72 h

Structure (SMILES)	pIC50 [1]	pIC50 [2]	pIC50 [3]	pIC50 [4]	pIC50 [5]	pIC50 [6]	pIC50 [7]	pIC50 [8]
C#CCn1cc(-c2ccc(NC(=O)Nc3cc(C(C)(C)C)on3)c(F)c2)c2c(N)ncnc21	9.41	7.79	< 6.00	7.34	9.36	6.99	8.61	< 6.00
C=CCn1cc(-c2ccc(NC(=O)Nc3cc(C(C)(C)C)on3)c(F)c2)c2c(N)ncnc21	9.19	7.08	< 6.00	7.77	8.63	7.29	8.52	< 6.00
CC(C)(C)c1cc(NC(=O)Nc2ccc(-c3cn(Cc4ccccc4)c4ncnc(N)c34)cc2)no1	8.60	6.87	< 6.00	7.07	8.76	7.02	8.07	< 6.00
C=CCCn1cc(-c2ccc(NC(=O)Nc3cc(C(C)(C)C)on3)c(F)c2)c2c(N)ncnc21	8.84	7.30	< 6.00	7.29	8.49	7.07	8.27	< 6.00
CCCCn1cc(-c2ccc(NC(=O)Nc3cc(C(C)(C)C)on3)cc2)c2c(N)ncnc21	8.85	6.68	< 6.00	7.47	8.66	6.95	8.24	< 6.00
CC(C)(C)c1cc(NC(=O)Nc2ccc(-c3cn(CC#N)c4ncnc(N)c34)cc2F)no1	9.14	8.01	< 6.00	7.72	9.37	7.06	8.90	< 6.00
COCCn1cc(-c2ccc(NC(=O)Nc3cc(C(C)(C)C)on3)cc2)c2c(N)ncnc21	10.31	7.54	< 6.00	7.68	9.83	7.30	9.02	< 6.00
CC(C)(C)c1cc(NC(=O)Nc2ccc(-c3cn(CCN4CCNCC4)c4ncnc(N)c34)cc2)no1	8.59	< 6.70	< 6.00	8.05	8.76	6.81	8.06	< 6.00
C=CCCCn1cc(-c2ccc(NC(=O)Nc3cc(C(C)(C)C)on3)cc2)c2c(N)ncnc21	8.65	6.70	< 6.00	7.16	8.53	6.85	8.23	< 6.00
C=CCCCCn1cc(-c2ccc(NC(=O)Nc3cc(C(C)(C)C)on3)cc2)c2c(N)ncnc21	8.54	6.64	< 6.00	7.15	8.75	6.73	8.22	< 6.00
CN(C)CCn1cc(-c2ccc(NC(=O)Nc3cc(C(C)(C)C)on3)cc2)c2c(N)ncnc21	9.87	7.07	< 6.00	7.77	9.82	6.77	8.79	< 6.00
CC(C)(C)c1cc(NC(=O)Nc2ccc(-c3cn(CCC#N)c4ncnc(N)c34)cc2)no1	9.28	7.71	< 6.00	8.22	9.42	7.61	8.80	< 6.00
CCCCCCn1cc(-c2ccc(NC(=O)Nc3cc(C(C)(C)C)on3)cc2)c2c(N)ncnc21	8.42	6.60	< 6.00	6.98	8.29	6.73	7.68	< 6.00
CCOCCn1cc(-c2ccc(NC(=O)Nc3cc(C(C)(C)C)on3)cc2)c2c(N)ncnc21	9.93	7.01	< 6.00	7.43	8.83	6.76	8.49	< 6.00
C=CCCn1cc(-c2ccc(NC(=O)Nc3cc(C(C)(C)C)on3)cc2)c2c(N)ncnc21	8.97	7.04	< 6.00	7.42	8.76	6.76	8.31	< 6.00
Cn1cc(-c2ccc(NC(=O)Nc3cc(C(C)(C)C)on3)cc2)c2c(N)ncnc21	10.85	7.55	< 6.00	8.15	9.51	7.33	8.84	< 6.00
CCCn1cc(-c2ccc(NC(=O)Nc3cc(C(C)(C)C)on3)cc2)c2c(N)ncnc21	9.13	7.14	< 6.00	7.82	9.39	7.38	8.57	< 6.00
CC#CCn1cc(-c2ccc(NC(=O)Nc3cc(C(C)(C)C)on3)cc2)c2c(N)ncnc21	8.94	7.29	< 6.00	7.59	8.41	7.06	8.21	< 6.00
CC(C)(C)c1cc(NC(=O)Nc2ccc(-c3cn(CCC#N)c4ncnc(N)c34)cc2F)no1	8.63	7.50	< 6.00	7.66	8.66	6.95	8.37	< 6.00
CCn1cc(-c2ccc(NC(=O)Nc3cc(C(C)(C)C)on3)cc2)c2c(N)ncnc21	9.84	7.54	< 6.00	8.15	9.32	7.64	9.04	< 6.00
CC(C)(C)OC(=O)N1CCN(CCn2cc(-c3ccc(NC(=O)Nc4cc(C(C)(C)C)on4)cc3)c3c(N)ncnc32)CC1	8.35	< 6.30	< 6.00	–	8.60	6.41	8.05	< 6.00
CCN(CC)C(=O)n1cc(-c2ccc(NC(=O)Nc3cc(C(C)(C)C)on3)cc2)c2c(N)ncnc21	8.71	7.55	< 6.00	7.51	8.76	7.55	8.51	< 6.00
CCC#CCn1cc(-c2ccc(NC(=O)Nc3cc(C(C)(C)C)on3)cc2)c2c(N)ncnc21	8.69	6.83	< 6.00	7.19	8.23	6.44	8.06	< 6.00
COCCn1cc(-c2ccc(NC(=O)Nc3cc(C(C)(C)C)on3)c(F)c2)c2c(N)ncnc21	9.24	7.40	< 6.00	7.49	8.70	7.16	8.25	< 6.00
CC(C)(C)c1cc(NC(=O)Nc2ccc(-c3cn(CCN4CCN(S(C)(=O)=O)CC4)c4ncnc(N)c34)cc2)no1	7.97	7.07	< 6.00	7.59	7.85	6.78	8.44	< 6.00
CC(C)(C)c1cc(NC(=O)Nc2ccc(-c3cn(C4CCCC4)c4ncnc(N)c34)cc2)no1	8.82	7.04	< 6.00	7.49	8.67	7.43	8.14	< 6.00
CC(C)=CCn1cc(-c2ccc(NC(=O)Nc3cc(C(C)(C)C)on3)cc2)c2c(N)ncnc21	8.56	6.66	< 6.00	6.95	7.99	6.52	8.06	< 6.00
C=C(C)Cn1cc(-c2ccc(NC(=O)Nc3cc(C(C)(C)C)on3)cc2)c2c(N)ncnc21	8.99	7.24	< 6.00	7.52	8.76	7.03	8.29	< 6.00
CCOCCn1cc(-c2ccc(NC(=O)Nc3cc(C(C)(C)C)on3)c(F)c2)c2c(N)ncnc21	8.81	7.37	< 6.00	7.31	8.87	7.26	8.34	< 6.00
